The values that follow are results of earlier work, collected in publication PMC9042378 (RSC Advances, 2021).

The series relates to Tyr.

Regarding mallotophilippen B, the Tyr inhibition type entry is listed as “Mixed inhibition”.
As for `O=c1cc(CO)occ1O` [kojic acid], the Tyr inhibition type result is on record as “Mixed inhibition”.
Turning to `O=C1c2c(O)cc(O)cc2O[C@H](c2cc(O)c(O)c(O)c2)[C@H]1O` [dihydromyricetin], the Tyr inhibition type result was “Mixed inhibition”.
Take `CCC(C)C(=O)c1c(O)c(Cc2c(O)c(C)c(O)c(C(=O)C(C)C)c2O)c(O)c2c1OC(C)(C)C=C2` (centres unmarked) [mallotophilippen A]: the Tyr inhibition type result was “Mixed inhibition”.
Take `O=C(O[C@@H]1Cc2c(O)cc(O)cc2O[C@@H]1c1ccc(O)c(O)c1)c1cc(O)c(O)c(O)c1` [epicatechin gallate]: the Tyr inhibition type entry is given as “Mixed inhibition”.
